Data on 13 molecules can be found in patent US20200375996A1, “METHOD OF TREATING NEURODEGENERATIVE DISORDERS BY RESCUING ALPHA-SYNUCLEIN TOXICITY” (D.E. Shaw Research, LLC, priority 2015, published 2020).

For test [1], the system named is Sna3-GFP. Put plainly: Sna3-GFP trafficking to the vacuole (Western blot, GFP cleavage). It counts as cell-based, yeast. The settings on record: for Sna3-GFP trafficking to the vacuole (in words): galactose 5 hours, FIGS. 15B-15F; for ratio of Sna3-GFP to free GFP: 10 μM, FIGS. 16A-16F, within the compound series. On the procedure: Log phase CsmRaf cultures of WT tagged Sna3-GFP cells were shifted to galactose for 5 hours in the presence or absence of the compounds. Cell pellets were lysed in SDS-loading dye and Sna3-GFP cleavage monitored by Western blotting with an anti-GFP antibody. Log phase CsmRaf cultures of WT or α-syn yeast were shifted to galactose for 5 hours in the presence or absence of the compounds at which point they were then prepared for Western blot analysis. FIGS. 15B-15F show Western blot analyses of Sna3-GFP for various compounds.
Ratio of the intact Sna3-GFP to cleaved GFP was calculated for each of the conditions as a readout for efficiency of trafficking of the Sna3-GFP molecule to the vacuole. Polyubiquitination of Sna3-GFP was used as a readout for the intermediate step at the multivesicular body. Image Studio software was used to determine the intensities of the bands, based on linear interpolation of the mean signal intensities from each of the areas of interest and ratios were subsequently calculated in Microsoft Excel and plotted according to the compound series as shown in FIGS. 16A-16F. In the ‘32’ series of analogs, the ratio of Sna3-GFP to free GFP varied among the analogs, with DES-2179 having the lowest ratio of Sna3-GFP to free GFP and DES-2866 having the highest ratio (FIG. 16A). In the ‘91’ series of analogs, the ratio of Sna3-GFP to free GFP varied among the analogs, but less so than for the ‘32’ series (FIG. 16B). In the ‘4117’ series of analogs, the ratio of Sna3-GFP to free GFP was lowest for DES-5212 (FIG. 16C). […] In the ‘28’ series of analogs, DES-2817 had the lowest ratio of Sna3-GFP to free GFP (FIG. 16F). The other compounds in the ‘28’ series had ratios between ˜0.5 and 1.0 (FIG. 16F). In the ‘37’ series of analogs, the ratio of Sna3-GFP to free GFP was greatest for DES-2926 (FIG. 16F).

The target of test [2] is T1, Rsp5 (Saccharomyces cerevisiae, UniProt P39940).
T1 sequence (P39940 431-809 limits assumed): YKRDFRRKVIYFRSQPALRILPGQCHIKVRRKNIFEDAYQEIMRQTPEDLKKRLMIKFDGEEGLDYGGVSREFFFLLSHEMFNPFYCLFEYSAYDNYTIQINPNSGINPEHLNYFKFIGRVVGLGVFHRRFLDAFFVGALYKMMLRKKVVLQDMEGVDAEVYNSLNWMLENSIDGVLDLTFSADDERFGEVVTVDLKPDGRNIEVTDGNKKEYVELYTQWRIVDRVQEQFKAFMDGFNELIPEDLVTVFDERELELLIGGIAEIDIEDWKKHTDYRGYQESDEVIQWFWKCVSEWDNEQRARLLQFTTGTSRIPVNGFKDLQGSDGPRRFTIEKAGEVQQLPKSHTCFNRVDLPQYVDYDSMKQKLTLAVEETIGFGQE
Put plainly: Back-Scattering Interferometry (BSI) binding to recombinant Rsp5. To be noted: for Kd: 100 nM Rsp5, one-site saturation binding model, read-out: dissociation constant (Kd) for binding to Rsp5.
Description: Sample Preparation of Rsp5 Target: Rsp5 was supplied in 15 μL aliquots of 100 μM (25 mM HEPES pH 7.5, 200 mM NaCl, 5 mM DTT) by St. Jude Research Hospital (Memphis, Tenn.) and was stored at −80° C. Immediately prior to assays fresh aliquots were thawed and diluted in 25 mM HEPES, pH 7.5, 200 mM NaCl, 1 mM DTT, 0.005% pluronic acid and 1% DMSO. The final Rsp5 concentration in the binding assay was 100 nM.
Sample Preparation of compounds (ligands): The compounds were received as solids and reconstituted to either 40 or 20 mM in 100% DMSO and stored at −80° C. in single use aliquots. The final concentration of each ligand in an assay was 50 μM with a 2× serial dilution to create a 12-point curve.
The assay buffer was 25 mM HEPES, pH 7.5, 200 mM NaCl, 1 mM DTT, 0.005% pluronic acid, 1% DMSO. The assay was run in Eppendorf 96-well PCR microplates. 55 μL of either Rsp5 or buffer (as control) were added to a each well. To these wells were added 55 μL of the compound dilution. A reference channel containing only buffer was setup as well for thermal compensation during assay measurements. The plates were heat sealed with foil and the assay plates were allowed to incubate at room temperature for 2 hours. Wells were pierced individually prior to sample injection and measurement of BSI signal (each well analyzed in duplicate). The assays were run using a glass microfluidic chip with a proprietary surface treatment on TruBind™ 100 system.
The BSI signal was expressed as the magnitude of the spatial shift of the fringe pattern on a CMOS camera, measured in milliradians. The control signal was subtracted from assay signal for each compound dilution point. The resulting values were re-zeroed and analyzed with the GraphPad Prism program. The dissociation constant (Kd) was derived from non-linear least-squares fitting of the data using the one-site saturation binding model. The goodness of fit was judged by the calculated R^2 value. The difference and control curves for at least two successful assays were averaged. The resulting average difference curve was used to calculate the reported Kd value for each compound.

Test [3] has as its system K63 linkages in iPS derived human neurons. Put plainly: K63-Ub linkages in human iPS derived neuronal cultures (immunoblot). It counts as cell-based. How it is done:
Human HEK-293 or neuronal cells treated with the appropriate compounds, were washed twice with ice cold PBS and then 0.5 ml of Lysis buffer was added and cells were scraped off the 10 cm dish (1 ml for 15 cm).
Lysis buffer is 50 mM Tris/HCl pH 7.5, 1 mM EGTA, 1 mM EDTA, 0.5 or 1% (v/v) NP-40, 1 mM sodium orthovanadate, 50 mM NaF, 5 mM sodium pyrophosphate, 0.27 M sucrose, 10 mM sodium 2-glycerophosphate, 0.2 mM phenylmethylsulphonyl fluoride, 1 mM benzamidine, plus 100 mM iodoacetamide added fresh prior to lysis (weight powder, don't use a frozen stock solution) to inactivate deubiquitylase activities and add also pepstatin/aprotinin to inhibit proteases. Cell extracts were sonicated twice for 15 seconds each time and clarified by centrifugation at 14000 g for 15 min at 4° C. Supernatants were collected and filtered using a 0.45 uM MiniSart/Syringe. Next, protein concentrations were determined by Bradford procedure.
The avidity based K63 linkage sensor protein was based on Sims et. al, 2012. Briefly, avidity based K63 sensor Halo-fusion protein was expressed in an E. coli expression vector and covalently bound to Halo-tag beads [Magne® HaloTag® Beads, 20% Slurry; Cat #G7281]. […] After incubation, the beads were washed three times with 1 ml of Lysis buffer containing 500 mM NaCl and once with 0.5 ml of 10 mM Tris/HCl pH 8.0. […] The eluate is heated at 75° C. for 5 min and analysed by immuno-blotting using an anti-K63 linkage specific antibody (http://www.abcam.com/ubiquitin-linkage-specific-k63-epr8590-448-antibody-ab179434.html).
Pure neuronal cultures derived from human iPS cells were treated with DMSO, DES-2877, DES-4114 and #32 at 5 μM for 12 hours. […] Ubiquitylation site identification by mass spectrometry was performed as described Kim et al., (Systematic and quantitative assessment of the ubiquitin-modified proteome. Mol Cell. 2011; 44:325-340). and Sarraf et al., (Landscape of the PARKIN-dependent ubiquitylome in response to mitochondrial depolarization. Nature. 2013; 496:372-376).

For test [4], the system named is α-synuclein-expressing yeast. Kind of test: α-synuclein toxicity rescue in yeast (growth, OD600). It counts as cell-based. To be noted: for rescue of aSyn toxicity in yeast (in words): FIGS. 8A-8B. On the procedure: Yeast Strains and culturing: Yeast strains expressing alpha-synuclein have been described in Cooper at. al, 2006. (Cooper A A, et al. Alpha-synuclein blocks ER-Golgi traffic and Rab1 rescues neuron loss in Parkinson's models. Science. 2006 Jul. 21; 313:324) Strains express multiple copies of alpha-synculein for galactose-inducible expression. […] Yeast were cultured in complete synthetic media (CSM) and an appropriate dropout (lacking histidine or uracil) to maintain plasmids if required. For galactose-induction experiments, overnight cultures were grown in CSM/2% glucose to saturation and diluted 1:20 into CSM/2% raffinose for ˜2 generations. Cultures were then diluted into CSM/2% galactose at an optimum OD600 for the experiment (see ‘Growth assays’).
Yeast Growth assays: Starting cultures for all dose-response assays were based on strains initially constructed in the lab to maintain homogeneity across experiments. All growth assays were carried out in 384 well format. Source plates were assembled in 96 well plates using multichannel pipettes to dilute rows in 1.6-fold serial dilutions of CSMGal. To these dilution series containing 2× final concentration of compound, 2×OD600 culture (in CSMGal) was dispensed with a multichannel pipette to achieve a final drug/culture mix with the desired OD600 and drug concentration. For WT yeast, the final starting OD600 was 0.01. For α-syn, the final starting OD600 was 0.02. Drug concentration ranges varied depending on efficacy, growth inhibition, and solubility in media. A Tecan EvoFreedom liquid handling robot was then used to transfer culture from 96 to 384 well format with each well being represented four times. Final well volume was 35 μL. Plates were then incubated in humidified containers at 30° C. for either 24 or 40 hours. Plates were then read with a Tecan Saphire plate reader at OD600.
Raw OD600 values were transformed to “Relative Growth” in WT cells or “% Maximum Rescue” in α-syn experiments. In WT cells, the well background was subtracted and all values were then normalized to 100% for the untreated condition. In α-syn rescue experiments, the well background was subtracted and the maximum rescue in the particular experiment was normalized to 100%.

Test [5] deals with aSyn-expressing yeast cells. Kind of test: Morphological analysis of aSyn-expressing yeast cells. The test is classed as cell-based. To be noted: 10 uM, galactose induction five hours, FIG. 10. How it is done:
Raffinose cultures of α-syn expressing yeast cells were grown up to the logarithmic phase in raffinose. Cultures were induced with galactose for five hours in the presence or absence of the indication concentration of the compounds. In the present example, the identified compounds were present at a concentration of 10 uM. Cells were centrifuged, media discarded, and then fixed with 4% paraformaldehyde in 1×PBS for 1 hr. The fixed culture was centrifuged, and the pellet resuspended in 0.4% paraformaldehyde in 1×PBS and kept at 4° C.

The test system of test [6] is Carboxypeptidase Y (CPY). Put plainly: Western blot of Carboxypeptidase Y (CPY) trafficking. The test is classed as cell-based, yeast. On the procedure: (§1) Protein analysis was performed in NoTox and HiTox strains with the compound treatment at indicated concentrations. Log phase CSM/2% raffinose cultures were induced with 2% galactose for 5 hours with DMSO or the compounds. Cultures were normalized to cell density and cell pellets prepared for SDS-PAGE. Cell pellets were boiled in SDS-loading dye for 15′, centrifuged, and resolved by 4-12% SDS-PAGE. CPY western blots were performed using culture conditions as described above. An anti-Cpy antibody (Invitrogen, A6428) was used at 1:5,000. Post-ER:ER ratios were quantitated using an IRDye800 secondary antibody (Li-Cor Odyssey, Rockland Immunochemicals) and scanned with the Li-Cor Odyssey imaging system. Significance was determined using a one-way ANOVA and Tukey's test of significance. From the same gel, total protein was detected by coomassie staining. Both blots and coomassie-stained gels were scanned using the Li-Cor Odyssey imaging system and quantitated. Significance was determined using a one-way ANOVA with Tukey's test of significance.

Test [7] has as its system Sna3-GFP. Put plainly: Immunoblot analysis of Sna3-GFP polyubiquitination in WT and α-syn cells. The test is classed as cell-based, yeast. To be noted: FIG. 11B. How it is done: as §1
In WT Sna3-GFP cells, log phase CSMRaf cultures were shifted to galactose for 5 hours in the presence or absence of the compounds. Cell pellets were lysed in SDS-loading dye and Sna3-GFP cleavage monitored by Western blotting with an anti-GFP antibody. […]

As to `O=C(c1ccc(COc2ccc(OC(F)(F)F)cc2)o1)N1CCC(O)(c2ccc(Cl)cc2)CC1` [DES-2854], the “Sna3-GFP trafficking to the vacuole (in words)” value (shortened to “Sna3-GFP trafficking”) in test [1] is “promote Sna3-GFP trafficking to the vacuole”.
As to `C(=N\Nc1nc(Nc2ccccc2)nc(N2CCOCC2)n1)/c1ccncc1` [DES-4117], the “binding to Rsp5 (in words)” value in test [2] is “did not show binding”.
Take `COc1cc(Cl)cc(/C=N/Nc2nc(Nc3cc(C)ccc3C)nc(N3CCOCC3)n2)c1O` [DES-2877]: the “K63 linkages in iPS derived human neurons” value in test [3] (5 μM for 12 hours, FIG. 13A) is recorded as “modest increase”. Further, the “rescue of aSyn toxicity in yeast (in words)” value (from here on “rescue of aSyn toxicity”) in test [4] is reported as “most effective”. Besides, the “morphology: vesicular intermediates in yeast cells” value in test [5] is listed as “accumulation of vesicular intermediates”. In test [2], the Kd is 1700 ± 400 nM. The “accumulation of CPY trafficking intermediates en route to the vacuole” value in test [6] (FIG. 11D) was “increase”. Besides, the “polyubiquitinated Sna3-GFP” value in test [7] is “increase”.
`COc1cc(Cl)cc(/C=N/Nc2nc(Nc3ccc(C)c(Cl)c3)nc(N3CCOCC3)n2)c1O` [DES-2866]: the “ratio of Sna3-GFP to free GFP” value in test [1] was “highest ratio”. Besides, the “rescue of aSyn toxicity” value in test [4] is “also effective”.
As to `C(=N\Nc1cc(N2CCOCC2)nc(Nc2ccccc2)n1)/c1ccncc1` [DES-5212], in test [1], the “ratio of Sna3-GFP to free GFP” value was “lowest” and the “Sna3-GFP trafficking” value is “promote Sna3-GFP trafficking to the vacuole”. In addition, the Kd in test [2] was 680 ± 180 nM.
In the case of `COc1cc(/C=N/Nc2nc(Nc3cccc(C(F)(F)F)c3)nc(N3CCOCC3)n2)ccc1O` [DES-2179], the “K63-linked ubiquitination of proteins” value in test [3] (Nedd4-dependent manner, FIGS. 3A-3C) is on record as “promote K63-linked ubiquitination of proteins”. In addition, in test [1], the “ratio of Sna3-GFP to free GFP” value is recorded as “lowest ratio” and the “Sna3-GFP trafficking” value is given as “promotes Sna3-GFP trafficking to the vacuole”. Also, the “concentration at which efficacy of rescue peaks” value in test [4] (dose-response, FIG. 1B, above the peak growth slows) is on record as “around 10 μM”. The “Cpy trafficking defect (block in vesicle trafficking)” value in test [6] (FIG. 1C) is recorded as “ameliorate this defect”.
Turning to `O=C(c1ccc(COc2ccc3ccccc3c2)o1)N1CCN(c2ncccn2)CC1` [DES-2926], the “ratio of Sna3-GFP to free GFP” value in test [1] was “greatest”.
In the case of `O=C(Nc1cccc(Cl)c1)c1coc(CN2CCN(c3ccc(F)cc3)CC2)n1` [DES-3035], the “Sna3-GFP trafficking” value in test [1] was “promote Sna3-GFP trafficking to the vacuole”.
Consider `COc1cc(/C=N/Nc2nc(Nc3ccccc3)nc(N3CCOCC3)n2)ccc1OCC#N` [DES-3001], for which the “Sna3-GFP trafficking” value in test [1] is listed as “promote Sna3-GFP trafficking to the vacuole”. Besides, the “binding to Rsp5 (in words)” value in test [2] is recorded as “did not show binding”.
With `O=C(c1ccc(COc2ccc(OC(F)(F)F)cc2)o1)N1CCN(c2ccccc2)CC1` [DES-2184], the “rescue of aSyn toxicity” value in test [4] is “also effective”.
Consider `Cc1ccc(C2CC(C(F)(F)F)n3nc(C(=O)N4CCN(c5ccccc5)CC4)cc3N2)cc1` (stereo not drawn) [DES-2960], for which, in test [1], the “Sna3-GFP trafficking” value is “promotes Sna3-GFP trafficking to the vacuole better than DES-2866 and DES-2928”.
Still for that read-out and setting: for `Cc1ccc(C)c(Nc2nc(N/N=C/c3ccncc3)nc(N3CCOCC3)n2)c1` [DES-5204] the value was “promote Sna3-GFP trafficking to the vacuole”.
In the case of `CCCCc1ccc2nc(-c3ccc(-c4cc(Cl)cc(Cl)c4)o3)cc(C(=O)O)c2c1` [DES-2817], in test [1], the “ratio of Sna3-GFP to free GFP” value is given as “lowest ratio” and the “Sna3-GFP trafficking” value is given as “promote Sna3-GFP trafficking to the vacuole”.
